Test results: ChEMBL document CHEMBL6127094, “Discovery of non-antiproliferative selective estrogen receptor degraders (SERDs) based on scaffold optimization of elacestrant” (Eur J Med Chem, 2024)
The source made the active and inactive calls. The calls are words filed in the database; no cut-off is given here.

Columns and labels:
MCF7 [1] = assay: Antiproliferative activity against human MCF7 cells assessed as reduction in cell viability at 5 to 100 uM incubated for 120 hrs by MTT assay relative to fulvestrant/elacestrant; type: functional, cell-based; details: dose 5-100 µM
[2] = molecular target: T1, Estrogen receptor (Homo sapiens) (UniProt P03372); assay: Induction of selective estrogen receptor degradation (SERD) in human MCF7 cells assessed as decrease in TFF1 mRNA expression level incubated for 24 hrs in presence of E2 (estrogen) by RT-qPCR analysis; type: cell-based
T1 sequence (whole entry): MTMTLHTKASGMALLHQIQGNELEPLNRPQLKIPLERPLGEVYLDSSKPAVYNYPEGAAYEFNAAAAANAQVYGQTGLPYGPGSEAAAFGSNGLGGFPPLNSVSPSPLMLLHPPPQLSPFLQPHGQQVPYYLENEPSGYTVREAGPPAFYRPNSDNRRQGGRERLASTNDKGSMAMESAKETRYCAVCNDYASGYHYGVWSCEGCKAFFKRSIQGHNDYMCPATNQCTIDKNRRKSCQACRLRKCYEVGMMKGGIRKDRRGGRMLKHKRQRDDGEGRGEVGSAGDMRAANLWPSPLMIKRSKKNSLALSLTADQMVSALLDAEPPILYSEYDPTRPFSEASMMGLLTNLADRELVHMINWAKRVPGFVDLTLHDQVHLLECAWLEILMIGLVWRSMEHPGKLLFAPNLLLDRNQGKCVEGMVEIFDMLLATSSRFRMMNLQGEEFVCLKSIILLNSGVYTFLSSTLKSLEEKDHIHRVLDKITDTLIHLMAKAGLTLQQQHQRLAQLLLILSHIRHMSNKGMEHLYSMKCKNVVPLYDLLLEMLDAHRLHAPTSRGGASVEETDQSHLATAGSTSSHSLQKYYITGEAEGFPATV

[3] = molecular target: T1, Estrogen receptor (Homo sapiens); assay: Induction of selective estrogen receptor degradation (SERD) in human MCF7 cells assessed as decrease in GREB1 mRNA expression level incubated for 24 hrs in presence of E2 (estrogen) by RT-qPCR analysis; type: cell-based
[4] = molecular target: T1, Estrogen receptor (Homo sapiens); assay: Induction of selective estrogen receptor degradation (SERD) in human MCF7 cells assessed as decrease in TFF1 mRNA expression level at 1 to 10 uM incubated for 24 hrs in presence of E2 (estrogen) by RT-qPCR analysis; type: cell-based; details: dose 1-10 µM
[5] = molecular target: T1, Estrogen receptor (Homo sapiens); assay: Induction of selective estrogen receptor degradation (SERD) in human MCF7 cells assessed as decrease in TFF1 mRNA expression level at 1 uM incubated for 24 hrs by RT-qPCR analysis; type: cell-based
[6] = molecular target: T1, Estrogen receptor (Homo sapiens); assay: Induction of selective estrogen receptor degradation (SERD) in human T47D cells at 5 uM incubated for 24 hrs by Western blot analysis; type: cell-based
[7] = molecular target: T1, Estrogen receptor (Homo sapiens); assay: Induction of selective estrogen receptor degradation (SERD) in human MCF7 cells assessed as decrease in CCND1 mRNA expression level at 1 uM incubated for 24 hrs by RT-qPCR analysis; type: cell-based
[8] = molecular target: T1, Estrogen receptor (Homo sapiens); assay: Induction of selective estrogen receptor degradation (SERD) in human MCF7 cells at 5 uM incubated for 24 hrs by Western blot analysis; type: cell-based
MCF7 [9] = assay: Inhibition of ERE signaling in human MCF7 cells transfected with 3X ERE TATA luciferase plasmid assessed as estrogen response element transcription at 10 uM incubated for 24 hrs by luminescence based analysis relative to elacestrant; type: functional, cell-based
[10] = molecular target: T1, Estrogen receptor (Homo sapiens); assay: Induction of selective estrogen receptor degradation (SERD) in human MCF7 cells assessed as decrease in CCND1 mRNA expression level at 1 to 10 uM incubated for 24 hrs in presence of E2 (estrogen) by RT-qPCR analysis; type: cell-based; details: dose 1-10 µM
T47D = assay: Antiproliferative activity against human T47D cells assessed as reduction in cell viability at 1 to 10 uM incubated for 120 hrs by MTT assay; type: functional, cell-based; details: dose 1-10 µM

Compound	Activity (MCF7 [1])	also measured
CCN(Cc1ccc(/C=C/C(=O)O)cc1)c1cc(F)ccc1N1CCc2cc(O)ccc2C1	inactive	–
CCNCCc1ccc(CN(CC)c2cc(OC)ccc2[C@@H]2CCc3cc(O)ccc3C2)cc1	–	Activity [2]: Active; Activity [3]: Active
CCN(C(=O)c1ccc(OCCN2CCCC2)cc1)c1cc(F)ccc1N1CCc2cc(O)ccc2C1	inactive	–
CCN(Cc1ccc(OCCN2CCCC2)cc1)c1ccccc1N1CCc2cc(O)ccc2C1	inactive	–
CCN(Cc1ccc(OCCN2CCCC2)cc1)c1cc(C)ccc1N1CCc2cc(O)ccc2C1	inactive	–
CCN(Cc1ccc(OCCN2CCCC2)cc1)c1cc(F)ccc1N1CCc2cc(O)ccc2C1	inactive	–
CCN(Cc1ccc(/C=C/C(=O)O)cc1)c1cc(C)ccc1N1CCc2cc(O)ccc2C1	inactive	–
CCN(Cc1ccc(OCCN2CCCCCC2)cc1)c1cc(C(F)(F)F)ccc1N1CCc2cc(O)ccc2C1	inactive	–
CCN(Cc1ccc(OCCN2CCCC2)cc1)c1cc(C(F)(F)F)ccc1N1CCc2cc(O)ccc2C1	inactive	–
CCN(Cc1ccc(OCCN2CCCCCC2)cc1)c1cc(C)ccc1N1CCc2cc(O)ccc2C1	inactive	–
CCN(Cc1ccc(/C=C/C(=O)O)cc1)c1ccccc1N1CCc2cc(O)ccc2C1	inactive	–
CCN(C(=O)c1ccc(OCCN2CCCC2)cc1)c1cc(C(F)(F)F)ccc1N1CCc2cc(O)ccc2C1	inactive	–
CCN(Cc1ccc(/C=C/C(=O)O)cc1)c1cc(C(F)(F)F)ccc1N1CCc2cc(O)ccc2C1	inactive	Activity [4]: Active; Activity [5]: Active; Activity [6]: Active; Activity [7]: Active; Activity [8]: Active; inhibition (MCF7 [9]): inactive; Activity [10]: Active; Activity (T47D): inactive
CCN(Cc1ccc(OCCN2CCCCCC2)cc1)c1ccccc1N1CCc2cc(O)ccc2C1	inactive	–
CCN(C(=O)c1ccc(OCCN2CCCC2)cc1)c1ccccc1N1CCc2cc(O)ccc2C1	inactive	–
CCN(Cc1ccc(OCCN2CCCCCC2)cc1)c1cc(F)ccc1N1CCc2cc(O)ccc2C1	inactive	–
CCN(C(=O)c1ccc(OCCN2CCCC2)cc1)c1cc(C)ccc1N1CCc2cc(O)ccc2C1	inactive	–
